The text below walks through data of paper PMC10941181 (2024).

Assay [1] concerns R2-Pu24T (G4 DNA) (DNA, G4) AGCACTCTAGCTCTATGAGGGTGGTGAGGGTGGGGAAGG
The assay is described as follows: 1H NMR imino shifts. The conditions noted are these: K+, 10 mM potassium phosphate; pH 7.4, 298 K.

Assay [2] concerns Cy5-Pu24T G4 (DNA, G4) AGCACTCTAGCTCTATGAGGGTGGTGAGGGTGGGGAAGG
The assay is described as follows: microscale thermophoresis. To be noted: 100 mM KCl, 10 mM potassium phosphate; pH 7.4, 0.05% Tween 20; 20 nM labelled DNA; GL 0.6 nM to 2.5 μM.

For the molecule `Cc1cc(N2CCNCC2)nc(Nc2nc(C)c3ccc4c(c3n2)CCC4)n1`, in assay [1], the binding entry is on record as “yes”. In assay [2], this molecule displayed a Kd of more than 0.2 µM.
